Details of data set [1]: species or system SD rats. Conditions: male, SD, rat, in vivo, iv, 1 mg/kg. As for the experimental part:
105 was dissolved in 4% NaHCO3 in saline for IV administration. The detailed procedure of dosing solution preparation was presented in Appendix I.
Thirteen (13) animals were placed on the study. The animals in IV arm were free access to food and water. One extra animal was used for blank liver and plasma generation (5 mL per animal). The resulting blank liver and plasma was then applied to the development of bioanalytical method and sample bioanalysis for the entire study.
The IV injection was conducted via foot dorsal vein. Animals were free access to food and water before dose.
The animal is restrained manually. Approximately 150 μL of blood/time point is collected into sodium heparin tube via cardiac puncture for terminal bleeding (anesthetized under carbon dioxide). Blood sample will be put on ice and centrifuged to obtain plasma sample (2000 g, 5 min under 4° C.) within 10 minutes.
The animal will be euthanized with carbon dioxide inhalation. Open abdominal cavity with scissor to expose internal organs. Hold the carcass in an upright position and allow the organs to fall forward. Cut the connective tissues and remove the organs. […]
The PK parameters were determined by non-compartmental model of non-compartmental analysis tool, Pharsight Phoenix WinNonlin® 6.2 software. […]

In data set [2] the test system is PP2A in circulating white blood cells. Kind of data set: Inhibition of PP2A in circulating white blood cells after slow iv 100. It counts as in vivo. To be noted: rat.
The nature of data set [3]: Microsomal stability, mouse microsomes. It is filed as in vitro ADME. Conditions: relative to verapamil.
Data set [4] in a line: Microsomal stability, rat microsomes. It counts as in vitro ADME. Conditions: relative to verapamil.
Data set [5] can be described thus: Microsomal stability, monkey microsomes. Conditions: relative to verapamil. It counts as in vitro ADME.
Data set [6] in a line: Microsomal stability, human microsomes. It counts as in vitro ADME. To be noted: relative to verapamil.
The next data set deals with U251 human GBM cells. Conditions: 100 ip together with radiation, daily for 5 days x 3 courses; 6 months plus follow-up. How it is done:
The mechanism of potentiation is impairment of multiple steps in a DNA-damage repair process and inhibition of exit from mitosis. […] Mice bearing subcutaneous (sc) xenografts of U251 human GBM cells were treated with compound 100 intraperitoneally together with radiation, each given daily for 5 days×3 courses.

For data set [7] the following is noted: rat, in vivo.
The conditions of data set [8]: rat, in vivo. This is another data set of the same source.
The conditions of data set [9]: day 4, cited from earlier work.
The conditions of data set [10]: female dogs, day 4, cited from earlier work.
Another data set is described as follows: in vivo. To be noted: rat, po.
Data set [11] in a line: Oral administration of 100 and 151 (Discussion): oral bioavailability, plasma and brain levels.

Structures are written as SMILES. Where two headings read alike, the source gives them in different places.

As usually defined, the AUC(0-t) is exposure summed from dosing to a finite time, without extrapolation to infinity. The term Tmax denotes the time from dosing to the highest level. With `O=C(O)C1C2CCC(O2)C1C(=O)O` (stereo not shown) [Endothal, 7-oxabicyclo[2.2.1]heptane-2,3-dicarboxylic acid], in [1], the exposure AUC(0-t) is 3152 ng·h/mL and the Tmax came out at 15 min.

As a reminder, the Vz is a proportionality between amount in the body and measured concentration, not a real space. As a reminder, the Cmax is the maximum level reached in the sampled fluid or tissue. For orientation: bioavailability means the share of a dose that reaches the circulation, judged against a reference dose that is usually intravenous. With `CN1CCN(C(=O)C2C3CCC(O3)C2C(=O)O)CC1` (stereo not shown) [Compound 100, 3-(4-methylpiperazine-1-carbonyl)-7-oxa-bicyclo[2,2,1]-heptane-2-carboxylic acid], the “inhibition of PP2A in circulating white blood cells” value was found to be 9% in [2] (100 slow iv 0.375 mg/kg), 15% in data set [2] (100 slow iv 0.75 mg/kg) and 25% in data set [2] (100 slow iv 1.5 mg/kg). For the same compound, the “stability in the presence of microsomes” value in data set [3], in data set [4], in data set [5] and in data set [6] was “stable relative to verapamil” each time. For the same compound, the xenografts eliminated with U251 human GBM cells was 60%. For the same compound, the “presence in plasma after oral administration (statement)” value in data set [7] is recorded as “little is present in plasma”. Moreover, the “passage of the blood brain barrier (BBB) (statement)” value in data set [8] is “does not readily pass the blood brain barrier”. Further, the Cl is given as 1071 mL/h/kg in [9] (MALE rats, 0.5 mg/kg); 1339 mL/h/kg in data set [9] (MALE rats, 0.75 mg/kg); 945 mL/h/kg in data set [9] (MALE rats, 1.25 mg/kg); 1045 mL/h/kg in [9] (female rats, 0.5 mg/kg); 790 mL/h/kg in [9] (female rats, 0.75 mg/kg); 438 mL/h/kg in [9] (female rats, 1.25 mg/kg). Besides, the “% AUC* Extrapolated” value in [9] (female rats, 0.5 mg/kg) was 5.6%; in data set [9] (female rats, 0.75 mg/kg), 27%; in data set [9] (female rats, 1.25 mg/kg) it was 17%. Moreover, the “AUC*” value in data set [9] (female rats, 0.5 mg/kg) is 479 ng·h/mL; in data set [9] (female rats, 0.75 mg/kg), 949 ng·h/mL; in data set [9] (female rats, 1.25 mg/kg), 2853 ng·h/mL. The AUClast in data set [9] (female rats, 0.5 mg/kg) is 452 ng·h/mL; in [9] (female rats, 0.75 mg/kg), 691 ng·h/mL; in data set [9] (female rats, 1.25 mg/kg), 2359 ng·h/mL; in [10] (0.15 mg/kg), 335 ng·h/mL; in data set [10] (0.30 mg/kg), 1020 ng·h/mL; in data set [10] (0.50 mg/kg), 2120 ng·h/mL. Moreover, the Co is 1497 ng/mL in [9] (female rats, 0.5 mg/kg); 2347 ng/mL in data set [9] (female rats, 0.75 mg/kg); 3849 ng/mL in data set [9] (female rats, 1.25 mg/kg); 566 ng/mL in data set [10] (0.15 mg/kg); 857 ng/mL in [10] (0.30 mg/kg); 1930 ng/mL in [10] (0.50 mg/kg). Moreover, the “DN AUClast” value was 904 in [9] (female rats, 0.5 mg/kg); 921 in [9] (female rats, 0.75 mg/kg); 1887 in data set [9] (female rats, 1.25 mg/kg). Further, the “SC AUClast” value is 17.7 ng·h/mL in data set [9] (female rats, 0.5 mg/kg); 54.0 ng·h/mL in data set [9] (female rats, 0.75 mg/kg); 747 ng·h/mL in data set [9] (female rats, 1.25 mg/kg). Further, the T1/2 in data set [9] (female rats, 0.5 mg/kg) was 15 min; in [9] (female rats, 0.75 mg/kg), 35.4 min; in [9] (female rats, 1.25 mg/kg), 108 min; in data set [10] (0.15 mg/kg), 28.2 min; in [10] (0.30 mg/kg), 48.6 min; in [10] (0.50 mg/kg), 72 min. Besides, the Vz in data set [9] (female rats, 0.5 mg/kg) is 378 mL/kg; in data set [9] (female rats, 0.75 mg/kg), 677 mL/kg; in data set [9] (female rats, 1.25 mg/kg) it was 1138 mL/kg. In addition, the highest concentration (Cmax) in [10] (0.15 mg/kg) is 370 ng/mL; in [10] (0.30 mg/kg), 731 ng/mL; in [10] (0.50 mg/kg), 1260 ng/mL. Besides, the Tmax in data set [10] (0.15 mg/kg) was 15 min; in data set [10] (0.30 mg/kg) it was 21 min; in [10] (0.50 mg/kg) it was 15 min. Further, the bioavailability in “in vivo” turned out to be 1%.

Regarding `COC(=O)C1C2CCC(O2)C1C(=O)N1CCN(C)CC1` (stereo not shown) [Compound 151], in [11] (151 given by mouth to rats), the “151 in brain tissue (statement)” value is on record as “barely detectable in brain tissue” and the “levels of compound 100 in the plasma after 151 (statement)” value is on record as “substantial levels of compound 100 in the plasma”. In addition, the oral bioavailability entry in data set [11] (Discussion) is reported as “about 60%”.

(Values after patent US20160264593A1 (priority 2013, published 2016).)
